Experimental data from patent US20230165835A1, “METHODS OF TREATING ACUTE LUNG INJURY USING EBSELEN” (SOUND PHARMACEUTICALS INC., priority 2020, published 2023).
Entries after “also recorded” stand apart in the source; their conditions may differ. Like-named read-outs stand apart in the source and are kept apart here.

Experiments:
[1] = Study 6.3: ebselen in mild to moderate COVID-19; assay type: in vivo, human; conditions: 400 to 600 mg BID for 14 to 21 days
SARS-CoV-2 [2] = assay: Hamster model of SARS-CoV-2 disease transmission and progression, viral load (PFU); assay type: in vivo, Golden Syrian Hamsters
Method: 24 hours prior to nasal inoculation with SARS-CoV-2, Golden Syrian Hamsters were dosed with ebselen, saline and remdesivir at 15 mg/kg. Samples were taken from nares (PFU/swab) on days 1, 2 and 3, and from the nasal turbinates and cranial & caudal lung tissue (PFU/100 mg) on day 7.

[3] = target: COVID-19 virus main protease (M^pro) (Severe acute respiratory syndrome coronavirus 2, UniProt P0DTD1); conditions: Jin et al.; cited from earlier work
18 common microbes = assay: MIC assays against 18 common microbes (interference); assay type: cell-based; conditions: to support testing in CF patients
From the text: (§1) We have studied the efficacy of ebselen in a number of indications including the treatment of Meniere's Disease, and in the treatment of ototoxicity in cystic fibrosis (CF) patients. Ebselen has an anti-inflammatory mechanism of action that is distinct from that of a classic corticosteroid immunosuppressive agent which can be beneficial in the treatment of respiratory viral infections. […] In addition, our Phase 2b study in cystic fibrosis (CF) patients with Pseudomonas is continuing without any safety issues. […] Our results and analysis in these other clinical studies supports the use of ebselen in the subject methods of treating or preventing conditions associated with respiratory viral infections described herein.
(§2) The anti-inflammatory mechanism of action of ebselen is unique and distinct over that of a classic corticosteroid immunosuppressive agent. […] In addition, our Phase 2b study in CF patients with Pseudomonas is continuing without any safety issues.

[4] = Cystic fibrosis trial: sentinel Pk, plasma tobramycin levels (DDI); assay type: in vivo, human
[5] = mice; Longenecker et al.; cited from earlier work
[6] = mice; Gu et al.; cited from earlier work
[7] = Cystic fibrosis trial (IV tobramycin + SPI-1005 0/200/400/600 BID, 21 days): FEV1; assay type: in vivo, human
Method: (§3) Thirty of 80 participants were enrolled starting in January 2019. They were Cystic fibrosis patients ages 18-70 that had acute pulmonary exacerbation or acute respiratory infections that required treatment with IV tobramycin 10 mg/kg/d for 10-21 days. They were randomized into four groups (1:1:1:1) (0, 200, 400, or 600 BID) and treated for 21 days. There were four follow-up visits for safety (adverse events, spirometry, labs), and two follow-up visits for efficacy (audiometric and vestibular). The primary endpoint was a reduction in cochleotoxic change, and the secondary endpoints was a reduction in tinnitus or vertigo severity.

[8] = Solubility in aqueous solutions; conditions: 25° Celsius
[9] = Study 6.4: ebselen in moderate COVID-19; assay type: in vivo, human; conditions: 400 or 800 mg BID for 7 days
SARS-CoV-2 [10] = assay: Reduction of SARS-CoV-2 viral load in Vero E6 cells (image based assay of Jin et al.); assay type: cell-based
[11] = Study 6.6: ebselen in severe COVID-19; assay type: in vivo, human; conditions: 400 or 800 mg BID for 14 days
[12] = Meniere's Disease clinical study: auditory function; assay type: in vivo, human; conditions: exceeds reported improvements with corticosteroid treatment
From the text: as §1, §2

nCoV2 = assay: Study 6.2: ebselen in nCoV2 positive subjects with no to mild COVID-19, viral load; conditions: 400 to 600 mg BID for 7-10 days, no to mild disease
Method: Eligible participants are diagnosed as nCoV2 positive and enrolled for treatment within 1-5 days of appearance of symptoms. The patient is not treated with another anti-viral therapeutic agent prior to beginning of treatment. […] Randomization is stratified by age (<60 years or ≥60 years).
Ebselen is dosed as 400 to 600 mg BID for a period of 7-10 days. […] Participants receive study intervention for up to 10 days and are followed for 28 days after first dose.
Respiratory samples are taken before treatment begins and daily during treatment to assess nCoV2 viral load daily.
The primary efficacy endpoint is the time to significant reduction in pre-treatment viral load (see Zou et al.; Pan et al.). […] Other efficacy assessments are also performed and compared to baseline levels.
Follow-up assessments can be performed at 2, 4, and 8 weeks after the start of treatment. […] Extended dosing involves sub-chronic dosing of 4-12 weeks (e.g., 4, 8 or 12 weeks) with assessment of viral load until virus eliminated.

Vero E6 cells = assay: Cytotoxicity / cell viability in Vero E6 cells; assay type: cell-based
[13] = Cystic fibrosis trial Part 2 Intervention: tobramycin-induced ototoxicity; assay type: in vivo, human
Method: as §3

[14] = Study 6.5: ebselen in moderate to severe COVID-19 at high risk of respiratory failure; assay type: in vivo, human; conditions: 400 to 600 mg BID up to 21 to 28 days
[15] = Part 2 Intervention (1:1:1:1) pooled

For `O=c1c2ccccc2[se]n1-c1ccccc1` [ebselen, 2-phenyl-1,2-benzisoselenazol-3(2H)-one], the “respiratory status and progression to severe disease” value [1] was “effective to improve in respiratory status and prevent progression to severe disease”, the “PFU/swab (nares) Day 1” value (SARS-CoV-2 [2]; 15 mg/kg, 24 hours prior to nasal inoculation, saline 2.7E+04) was 1.0E+04 PFU/swab and the “PFU/swab (nares) Day 3” value (SARS-CoV-2 [2]; 15 mg/kg, 24 hours prior to nasal inoculation, saline 5.5E+02) was 1.7E+02 PFU/swab. For the same molecule, the “PFU/swab (nares) Day 2” value (SARS-CoV-2 [2]; 15 mg/kg, 24 hours prior to nasal inoculation, saline 7.5E+03) was 6.2E+03 PFU/swab, the “PFU/100 mg Cranial lung” value (SARS-CoV-2 [2]; 15 mg/kg, day 7, saline 4.9E+06) was 2.3E+06 PFU/100 mg and the “PFU/100 mg Turbinates” value (SARS-CoV-2 [2]; 15 mg/kg, day 7, saline 5.5E+07) was 3.6E+07 PFU/100 mg. For the same molecule, the “PFU/100 mg Caudal lung” value (SARS-CoV-2 [2]; 15 mg/kg, day 7, saline 6.1E+06) was 6.0E+06 PFU/100 mg, the “samples with lower counts compared to remdesivir” value (SARS-CoV-2 [2]; Table 2, six samples) was 5 of 6 and the “samples with lower counts compared to saline” value (SARS-CoV-2 [2]; Table 2, six samples) was 6 of the 6. The “in vitro inhibition activity against M^pro protease” value [3] was “modest in vitro inhibition activity”, the “interference in MIC assays” value (18 common microbes) was “lack of interference” and the “change in plasma tobramycin levels (DDI)” value [4] was “no significant change in plasma tobramycin levels”. The “tinnitus and hyperacusis following amikacin-induced ototoxicity” value [5] was “improvements in tinnitus and hyperacusis”, the “protection against tobramycin-induced ototoxicity, auditory brainstem responses” value [6] was “otoprotective and neuroprotective properties” and the “change in lung functioning (FEV1)” value ([7]; 2 and 4 weeks, cystic fibrosis patients on IV tobramycin, versus Part 1 observation study) was “improvement in lung functioning (FEV1) at both 2 and 4 weeks; also recorded: improved relative FEV1% predicted at 2 and 4 weeks”. The “FEV1 score Mean (SD), 2 Week” value ([7]; pooled 0/200/400/600 BID groups, baseline 46.87 (13.68), n 17) was 48.53 (14.57), the “FEV1 score Mean (SD), 4 Week” value ([7]; pooled 0/200/400/600 BID groups, baseline 46.87 (13.68), n 19) was 52.68 (22.99) and the “solubility in aqueous solutions” value [8] was “slightly soluble”. For the same molecule, the “respiratory status and progression to severe disease” value [9] was “effective to improve in respiratory status and prevent progression to severe disease”, the EC50 (SARS-CoV-2 [10]; SARS-CoV-2, ebselen 100 nM to 1000 μM in DMSO or EtOH, remdesivir 1 nM to 10 μM, listed as ebselen (EtOH), read-out: EC50, reduction in viral load in Vero E6 cells) was 10.9 µM and the EC50 (SARS-CoV-2 [10]; Severe acute respiratory syndrome coronavirus 2, Vero C1008, SARS-CoV-2, ebselen 100 nM to 1000 μM in DMSO or EtOH, remdesivir 1 nM to 10 μM, read-out: EC50, reduction in viral load in Vero E6 cells) was 21.3 µM. For the same molecule, the EC50 (SARS-CoV-2 [10]; Severe acute respiratory syndrome coronavirus 2, Vero C1008, Vero E6 cells, ebselen added in DMSO, read-out: EC50, inhibition of viral load) was 21 µM, the EC50 (SARS-CoV-2 [10]; Severe acute respiratory syndrome coronavirus 2, Vero C1008, Vero E6 cells, ebselen added in EtOH, read-out: EC50, inhibition of viral load) was 11 µM and the “inhibition of viral load (FIGS. 1A-C)” value (SARS-CoV-2 [10]; in vitro kidney cell assay (Vero E6 cells)) was “inhibited viral load”. For the same molecule, the “respiratory status / time to clinical improvement (WHO ordinal scale)” value [11] was “effective to improve in respiratory status, and/or reduce time to at least a 2-grade improvement from baseline on the WHO ordinal scale”, the “auditory function (hearing loss, word recognition and tinnitus)” value [12] was “improvement in auditory function; also recorded: improve auditory function” and the viral load (nCoV2) was “effective to reduce viral load”. For the same molecule, the “cell viability at the EC50” value (Vero E6 cells) was 100%, the “effect on cell viability” value (Vero E6 cells; ebselen: at ranges slightly higher than EC50) was “cell viability was decreased” and the CC50 (Vero E6 cells; listed as ebselen (DMSO)) was greater than 1000 µM. The CC50 (Vero E6 cells; listed as ebselen (EtOH)) was greater than 100 µM, the “ototoxic change versus Part 1 Observational study” value ([13]; 4 weeks after IV tobramycin treatment) was “lower levels of ototoxic change” and the “% Responders (Bilateral), Conv + SRO” value [13, 15] was 29%. For the same molecule, the “% Responders (Bilateral), Conventional” value [13, 15] was 5%, the “% Responders (Bilateral), DPOAE” value [13, 15] was 40% and the “% Responders (Bilateral), SRO” value [13, 15] was 21%. For the same molecule, the “% Responders (Bilateral), WINT” value [13, 15] was 0%, the “% Responders (Unilateral), Conv + SRO” value [13, 15] was 29% and the “% Responders (Unilateral), Conventional” value [13, 15] was 5%. The “% Responders (Unilateral), DPOAE” value [13, 15] was 40%, the “% Responders (Unilateral), SRO” value [13, 15] was 37% and the “% Responders (Unilateral), WINT” value [13, 15] was 26%. For the same molecule, the “% Responders, Conv + SRO” value [13, 15] was 57%, the “% Responders, DPOAE” value [13, 15] was 80% and the “% Responders, SRO” value [13, 15] was 58%. The “% Responders, TFI” value [13, 15] was 14%, the “% Responders, TL” value [13, 15] was 0% and the “% Responders, VSS” value [13, 15] was 5%. The “% Responders, WINT” value [13, 15] was 26%, the “% Responders, Conventional” value ([13]; Part 2 Intervention (1:1:1:1; 0, 200, 400, 600 BID pooled) with IV tobramycin, 4 weeks post-treatment) was 10% and the “time to clinical improvement (NIAID ordinal scale)” value [14] was “effective to reduce time to at least a 2-grade improvement from baseline on the NIAID ordinal scale”.
